The results in this text go back to patent publication US8946426B2, “Substituted bicyclic heterocyclic compounds as gamma secretase modulators” (Janssen Pharmaceuticals, Inc., priority 2009, dated 2015).

For assay [1], the system named is Aβtotal. The assay can be described thus: In vivo efficacy: Aβtotal lowering in brain after single oral dose (Table 8). To be noted: mouse brain soluble fraction, ELISA, compared to untreated animals. The text has this:
To determine whether acute administration of an Aβ42 lowering agent would reduce Aβ42 levels in vivo, non-transgenic rodents, e.g. mice or rats were used. Alternatively, two to three month old Tg2576 mice expressing APP695 containing the “Swedish” variant can be used or a transgenic mouse model developed by Dr. Fred Van Leuven (K.U.Leuven, Belgium) and co-workers, with neuron-specific expression of a clinical mutant of the human amyloid precursor protein [V7171] (Moechars et al., 1999 J. Biol. Chem. 274, 6483). Young transgenic mice have high levels of Aβ in the brain but no detectable Aβ deposition. At approximately 6-8 months of age, the transgenic mice start to display spontaneous, progressive accumulation of β-amyloid (Aβ) in the brain, eventually resulting in amyloid plaques within the subiculum, hippocampus and cortex. Animals treated with the Aβ42 lowering agent were examined and compared to those untreated or treated with vehicle and brain levels of soluble Aβ42 and total Aβ would be quantitated by standard techniques, for example, using ELISA. Treatment periods varied from hours to days and were adjusted based on the results of the Aβ42 lowering once a time course of onset of effect could be established.
A typical protocol for measuring Aβ42 lowering in vivo is shown but it is only one of many variations that could be used to optimize the levels of detectable Aβ. For example, Aβ42 lowering compounds were formulated in 20% of Captisol® (a sulfobutyl ether of β-cyclodextrin) in water or 20% hydroxypropyl β cyclodextrin. The Aβ42 lowering agents were administered as a single oral dose or by any acceptable route of administration to overnight fasted animals. After four hours, the animals were sacrificed and Aβ42 levels were analysed.
Blood was collected by decapitation and exsanguinations in EDTA-treated collection tubes. Blood was centrifuged at 1900 g for 10 min at 4° C. and the plasma recovered and flash frozen for later analysis. The brain was removed from the cranium and hindbrain. The cerebellum was removed and the left and right hemisphere were separated. The left hemisphere was stored at −18° C. for quantitative analysis of test compound levels. The right hemisphere was rinsed with phosphate-buffered saline (PBS) buffer and immediately frozen on dry ice and stored at −80° C. until homogenization for biochemical assays.
Mouse brains were resuspended in 10 volumes of 0.4% DEA (diethylamine)/50 mM NaCl pH 10 (for non-transgenic animals) or 0.1% 3-[(3-cholamidopropyl)-dimethyl-ammonio]-1-propanesulfonate (CHAPS) in tris buffered saline (TBS) (for transgenic animals) containing protease inhibitors (Roche-11873580001 or 04693159000 per gram of tissue, e.g. for 0.158 g brain, add 1.58 ml of 0.4% DEA. All samples were sonicated for 30 sec on ice at 20% power output (pulse mode). Homogenates were centrifuged at 221.300×g for 50 min. The resulting high speed supernatants were then transferred to fresh tubes and were optionally further purified before the next step. A portion of the supernatant was neutralized with 10% 0.5 M Tris-HCl and this was used to quantify Aβtotal.
The obtained supernatants were purified with Water Oasis HLB reverse phase columns (Waters Corp., Milford, Mass.) to remove non-specific immunoreactive material from the brain lysates prior subsequent Aβ detection. Using a vacuum manifold, all solutions were passed through the columns at a rate of approximately 1 ml per minute, so the vacuum pressure was adjusted accordingly throughout the procedure. Columns were preconditioned with 1 ml of 100% MeOH, before equilibration with 1 ml of H2O. Non-neutralized brain lysates were loaded onto the columns. The loaded samples were then washed twice with the first wash performed with 1 ml of 5% MeOH, and the second wash with 1 ml of 30% MeOH. Finally, the Aβ was eluted from the columns and into 100×30 mm glass tubes, with a solution of 90% MeOH with 2% NH4OH. […]
(In general: ELISA stands for enzyme-linked immunosorbent assay.)

Assay [2] has as its system Aβtotal. The assay can be described thus: Method 1: Aβtotal sandwich ELISA in supernatant of SKNBE2 cells carrying APP 695-wild type (Tables 7a, 7b). It is filed as cell-based. In outline:
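SKNBE2 cells expressing wild-type APP695 were exposed to compound for 18 Hours in Ultraculture with 1% glutamine. Aβtotal in the supernatant was read by 6E10-capture/biotinylated 4G8 sandwich ELISA with a fluorogenic peroxidase read-out, and WST-1 checked toxicity. IC50 came from a 4-parameter fit of percent inhibition or percent of control versus concentration.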

Setting [3] is: Homo sapiens, SKNBE2, Table 7b, averaged IC50, non-linear regression of percentage of control vs log concentration, 4-parameter equation.
Where [4] appears, read: Homo sapiens, Table 7a, SKNBE2 cells, compounds 18 h, XLfit 4-parameter fit of percent inhibition, top/bottom fixed to 100/0, hill slope 1.
Where [5] appears, read: Table 7b, averaged IC50, non-linear regression of percentage of control vs log concentration, 4-parameter equation.

Structures are written as SMILES. Where only a bound is given, the exact number is not on record here.

On to `Cc1ncoc1-c1ccc(Nc2cccc3c2nc(-c2ccc(F)cc2)n3C)nc1` [Compound 10], for which, in assay [1], the “Aβtotal (% Ctrl)_Mean” value came out at 109 % Ctrl.
Still for that read-out and setting: the same measure for `COc1cc(Nc2cccc3c2nc(CCC(F)(F)F)n3C)ccc1-c1ocnc1C` [Compound 11]: 99 % Ctrl.
Turning to `COc1cc(Nc2cccc3c2nc(-c2ccc(F)cc2)n3C)ccc1-c1ocnc1C` [Compound 12], the IC50 – broadly, the concentration that gives 50% inhibition – in assay [2] (setting [3]) was more than 3000 nM; in assay [2] (setting [4]), more than 1000 nM. Moreover, the “Aβtotal (% Ctrl)_Mean” value in assay [1] came out at 101 % Ctrl.
Regarding `COc1cc(Nc2cccc3c2nc(-c2ccc(F)cc2)n3C)ccc1-c1cnc(C)o1` [Compound 16], the IC50 in assay [2] (setting [3]) and in assay [2] (setting [4]) was more than 3000 nM in each case. Moreover, in assay [1], the “Aβtotal (% Ctrl)_Mean” value worked out at 95 % Ctrl.
In assay [2] (setting [3]), `Cc1ncc(-c2ccc(Nc3nccc4c3nc(-c3ccc(F)cc3)n4C)cc2F)o1` [Compound 17] returned an IC50 of more than 3000 nM. Further, the “Aβtotal (% Ctrl)_Mean” value in assay [1] came out at 109 % Ctrl.
The like results for `Cc1ncc(-c2ccc(Nc3cccc4c3nc(-c3ccc(F)cc3)n4C(C)C)cn2)o1` [Compound 18] were, in that order, more than 3000 nM and 94 % Ctrl.
In turn, `COc1cccc(-c2nc3c(Nc4ccc(-c5cnc(C)o5)nc4)cc(F)cc3n2C)c1` [Compound 105] gave an IC50 in assay [2] (setting [5]) of more than 3000 nM. In assay [1], the “Aβtotal (% Ctrl)_Mean” value amounted to 96 % Ctrl.
For the compound `COc1cc(Nc2nc(C(F)(F)F)cn3cc(C)nc23)ccc1-c1cnc(C)o1` [Compound 170], in assay [1], the “Aβtotal (% Ctrl)_Mean” value came out at 99 % Ctrl.
`COc1cc(Nc2cncc3c2nc(-c2ccc(F)cc2)n3C)ccc1-c1cnc(C)o1` [Compound 186] displayed an IC50 in assay [2] (setting [5]) of more than 10000 nM. In assay [1], the “Aβtotal (% Ctrl)_Mean” value was found to be 82 % Ctrl.
The like results for `COc1cc(Nc2cc(C(F)(F)F)nn3cc(C)nc23)ccc1-c1cnc(C)o1` [Compound 195] were, in that order, more than 10000 nM and 99 % Ctrl.
